Measured values published in patent US20030069166A1, “Stimulative agent and stimulative perfume composition” (Shiseido Co., Ltd., priority 1999, published 2003).

Key:
[1] = tested on: Contingent Negative Variation (CNV), electric potential of the brain; assay: Contingent Negative Variation (CNV) measurement while inhaling the aroma sample; assay type: in vivo, human; conditions: for Stimulative or sedative effect by CNV (FIG. 1): 1% ethanol solution of each sample, 5 healthy adult women, over 100% of CNV = stimulative, less than 100% = sedative
Protocol: First of all, the test method of this invention is explained. The change of negative electric potential of brain called Contingent Negative Variation (CNV) was measured. CNV is the gradual fluctuation of electric potential of the brain. It is related to the fluctuation of the mental process and the conscious level such as an attention, expectation and anticipation.
An experiment to study perfume effects was as follows. After two seconds from a warning sound stimulation, a starting signal light of an exercise is turned on. Then, as soon as light is observed, the pushing button behavior is demanded as exercise reaction. In this series of steps, a sample of aroma is located at 10cm before nose tip. The aroma can be always recognized along with breathing. A recording electrode for the CNV measurement is fixed to the frontal region of the head. An electric potential between the frontal region and ear lobe is measured.
The fluctuation area of this section is expressed as comparative percentage (%) to 100% of blank (odorless stimulation). Also, aroma was presented in accordance with Latin square method.

[2] = tested on: Contingent Negative Variation (CNV), electric potential of the brain; conditions: administered drug; reported in the literature; cited from earlier work

SMILES	Stimulative or sedative effect by CNV (FIG. 1) [1]	Change of amplitude of CNV after administration [2]	other results
COc1cc(C)cc(OC)c1 [DMB, 1,3-dimethoxy-5-methylbenzene]	sedative effect	–	–
CC=Cc1ccc(OC)cc1 [anethole]	–	–	Measured value of CNV ([1]; ethanol solution including 1 wt % of each sample, % relative to 100% of blank (odorless stimulation)): 108%
COc1ccc(C=O)cc1 [anisaldehyde, p-methoxy benzaldehyde]	much stronger stimulative effect in comparison with conventional lemon oil	–	Effective amount of anisaldehyde in the perfume ingredients ([1]; concluded from Table 2 (anisaldehyde in anethole)): ≥ 1 wt %
Cn1c(=O)c2c(ncn2C)n(C)c1=O [caffeine]	–	increase of amplitude of CNV	–
O=C1CN=C(c2ccccc2)c2cc([N+](=O)[O-])ccc2N1 [nitrazepam]	–	decrease of amplitude of CNV	–
